Results taken from patent US8207177B2, “Inhibitors of E1 activating enzymes” (Millennium Pharmaceuticals, Inc., priority 2006, dated 2012).

Biological target: T1, recombinant human NAE enzyme (Homo sapiens, UniProt Q8TBC4)
T1 construct: His (N); made in house; host or cells: Sf9 insect cells (baculovirus, Bac-to-Bac), purified on Ni-NTA
T1 sequence (Q8TBC4 1-463): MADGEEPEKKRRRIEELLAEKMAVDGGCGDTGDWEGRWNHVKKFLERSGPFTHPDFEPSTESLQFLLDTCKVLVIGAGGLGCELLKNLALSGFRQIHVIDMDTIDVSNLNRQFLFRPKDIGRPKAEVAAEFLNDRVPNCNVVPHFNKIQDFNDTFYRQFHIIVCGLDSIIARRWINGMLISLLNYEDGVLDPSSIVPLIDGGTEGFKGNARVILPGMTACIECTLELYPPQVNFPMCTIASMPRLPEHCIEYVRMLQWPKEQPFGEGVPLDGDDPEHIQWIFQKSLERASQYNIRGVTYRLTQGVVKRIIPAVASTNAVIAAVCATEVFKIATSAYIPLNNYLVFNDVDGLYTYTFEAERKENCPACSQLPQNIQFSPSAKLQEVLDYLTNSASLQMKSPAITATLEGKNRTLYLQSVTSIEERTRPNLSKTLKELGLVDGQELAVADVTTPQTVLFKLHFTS
T1 sequence (Q13564 1-534 partner): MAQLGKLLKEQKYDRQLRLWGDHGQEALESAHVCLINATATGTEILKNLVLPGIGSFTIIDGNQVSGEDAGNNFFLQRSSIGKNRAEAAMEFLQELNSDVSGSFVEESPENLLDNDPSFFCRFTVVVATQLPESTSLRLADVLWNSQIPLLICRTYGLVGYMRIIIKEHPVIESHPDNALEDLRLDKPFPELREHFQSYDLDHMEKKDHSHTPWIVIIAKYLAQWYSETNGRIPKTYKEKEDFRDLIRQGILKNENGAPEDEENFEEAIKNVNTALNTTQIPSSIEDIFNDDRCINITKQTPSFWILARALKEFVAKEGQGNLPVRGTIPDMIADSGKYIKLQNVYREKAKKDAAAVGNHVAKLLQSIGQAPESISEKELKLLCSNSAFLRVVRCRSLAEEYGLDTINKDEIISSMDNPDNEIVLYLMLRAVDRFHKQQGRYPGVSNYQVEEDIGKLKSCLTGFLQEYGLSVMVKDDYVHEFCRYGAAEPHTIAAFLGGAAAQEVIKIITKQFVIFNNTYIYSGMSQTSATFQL
Experiment: Nedd8-Activating Enzyme (NAE) HTRF Assay
Assay type: biochemical
Conditions: threshold statement: less than or equal to 100 nM; 20 μM ATP, 90 minutes at 24° C.
Procedure: Following manufacturer instructions, baculoviruses were generated with the Bac-to-Bac Expression System (Invitrogen) for the following proteins: untagged NAEα (APPBP1; NP_003896.1), N-terminally His-tagged NAEβ (UBE1C; NP_003959.3), untagged SAEα (SAE1; NP_005491.1), N-terminally His-tagged SAEβ (UBA2; NP_005490.1), N-terminally His-tagged murine UAE (UBE1X; NP_033483). NAEα/His-NAEβ and SAEα/His-SAEβ complexes were generated by co-infection of Sf9 cells, which were harvested after 48 hours. His-mUAE was generated by single infection of Sf9 cells and harvested after 72 hours. Expressed proteins were purified by affinity chromatography (Ni—NTA agarose, Qiagen) using standard buffers. Ubc12 (UBE2M; NP_003960.1), Ubc9 (UBE2I; NP_003336.1), Ubc2 (UBE2A; NP_003327.2) were subcloned into pGEX (Pharmacia) and expressed as N-terminally GST tagged fusion proteins in E. coli. Expressed proteins were purified by conventional affinity chromatography using standard buffers. Nedd8 (NP_006147), Sumo-1 (NP_003343) and Ubiquitin (with optimized codons) were subcloned into pFLAG-2 (Sigma) and expressed as N-terminally Flag tagged fusion proteins in E. coli. Expressed proteins were purified by conventional chromatography using standard buffers. Nedd8-Activating Enzyme (NAE) HTRF Assay. The NAE enzymatic reaction totaled 50 μL and contained 50 mM HEPES (pH 7.5), 0.05% BSA, 5 mM MgCl2, 20 μM ATP, 250 μM GSH, 0.01 μM Ubc12-GST, 0.075 μM Nedd8-Flag and 0.28 nM recombinant human NAE enzyme. The enzymatic reaction mixture, with and without compound inhibitor, was incubated at 24° C. for 90 minutes in a 384-well plate before termination with 25 μL of Stop/Detection buffer (0.1M HEPES pH 7.5, 0.05% Tween20, 20 mM EDTA, 410 mM KF, 0.53 nM Europium-Cryptate labeled monoclonal anti-FLAG M2 antibody (CisBio International) and 8.125 μg/mL PHYCOLINK goat anti-GST allophycocyanin (XL-APC) antibody (Prozyme)). After incubation for 3 hours at 24° C., quantification of the FRET was performed on the Analyst™ HT 96.384 (Molecular Devices).

IC50, ≤ 100 nM:
CC[C@@H]1Cc2ccccc2[C@@H]1Nc1ncnc2c1ccn2[C@@H]1C[C@@H](COS(N)(=O)=O)[C@@H](O)C1 [Compound I-83, [(1S,2S,4R)-4-(4-{[(1R,2R)-2-ethyl-2,3-dihydro-1H-inden-1-yl]amino}-7H-pyrrolo[2,3-d]pyrimidin-7-yl)-2-hydroxycyclopentyl]methyl sulfamate]
NS(=O)(=O)OC[C@@H]1C[C@@H](n2ccc3c(N[C@H]4CCOc5ccccc54)ncnc32)C[C@@H]1O [Compound I-12, ((1S,2S,4R)-4-{4-[(4S)-3,4-dihydro-2H-chromen-4-ylamino]-7H-pyrrolo[2,3-d]-pyrimidin-7-yl}-2-hydroxycyclopentyl)methyl sulfamate]
CNc1ncnc2c1ccn2[C@@H]1C[C@@H](COS(N)(=O)=O)[C@@H](O)C1 [Compound I-40, {(1S,2S,4R)-2-hydroxy-4-[4-(methylamino)-7H-pyrrolo[2,3-d]pyrimidin-7-yl]-cyclopentyl}methyl sulfamate]
C[C@@H](c1ccccc1)N(C)c1ncnc2c1ccn2[C@@H]1C[C@@H](COS(N)(=O)=O)[C@@H](O)C1 [Compound I-3, [(1S,2S,4R)-2-hydroxy-4-(4-{methyl[(1S)-1-phenylethyl]amino}-7H-pyrrolo-[2,3-d]pyrimidin-7-yl)cyclopentyl]methyl sulfamate]
C[C@]1(O)C[C@H](n2ccc3c(N[C@H]4CCc5ccccc54)ncnc32)C[C@H]1COS(N)(=O)=O [Compound I-30, ((1S,2S,4R)-4-{4-[(1S)-2,3-dihydro-1H-inden-1-ylamino]-7H-pyrrolo[2,3-d]-pyrimidin-7-yl}-2-hydroxy-2-methylcyclopentyl)methyl sulfamate]
NS(=O)(=O)OC[C@@H]1C[C@@H](n2ccc3c(N[C@H]4CCc5ccccc54)ncnc32)[C@H](O)[C@@H]1O [Compound I-17, ((1S,2R,3S,4R)-4-{4-[(1S)-2,3-dihydro-1H-inden-1-ylamino]-7H-pyrrolo[2,3-d]-pyrimidin-7-yl}-2,3-dihydroxycyclopentyl)methyl sulfamate]
COC[C@H]1Cc2ccccc2C1Nc1ncnc2c1ccn2[C@@H]1C[C@@H](COS(N)(=O)=O)[C@@H](O)C1 (stereo in doubt) [Compound I-80, [(1S,2S,4R)-2-hydroxy-4-(4-{[(1S,2S)-2-(methoxymethyl)-2,3-dihydro-1H-inden-1-yl]amino}-7H-pyrrolo[2,3-d]pyrimidin-7-yl)cyclopentyl]methyl sulfamate]
NS(=O)(=O)OC[C@@H]1C[C@@H](n2ccc3c(N[C@H]4CCc5cc(Br)ccc54)ncnc32)C[C@@H]1O [Compound I-33, [(1S,2S,4R)-4-(4-{[(1S)-5-bromo-2,3-dihydro-1H-inden-1-yl]amino}-7H-pyrrolo-[2,3-d]pyrimidin-7-yl)-2-hydroxycyclopentyl]methyl sulfamate]
NS(=O)(=O)OC[C@@H]1C[C@@H](n2ccc3c(N[C@H]4CCc5cc(Cl)ccc54)ncnc32)C[C@@H]1O [Compound I-27, [(1S,2S,4R)-4-(4-}[(1S)-5-chloro-2,3-dihydro-1H-inden-1-yl]amino}-7H-pyrrolo-[2,3-d]pyrimidin-7-yl)-2-hydroxycyclopentyl]methyl sulfamate]
NS(=O)(=O)OC[C@@H]1C[C@@H](n2ccc3c(NCc4ccc(C(F)(F)F)cc4)ncnc32)C[C@@H]1O [Compound I-8, [(1S,2S,4R)-2-hydroxy-4-(4-{[4-(trifluoromethyl)benzyl]amino}-7H-pyrrolo-[2,3-d]pyrimidin-7-yl)cyclopentyl]methyl sulfamate]
NS(=O)(=O)OC[C@@H]1C[C@@H](n2ccc3c(NCc4ccc(Cl)cc4C(F)(F)F)ncnc32)C[C@@H]1O [Compound I-42, [(1S,2S,4R)-4-(4-{[4-chloro-2-(trifluoromethyl)benzyl]amino}-7H-pyrrolo[2,3-d]-pyrimidin-7-yl)-2-hydroxycyclopentyl]methyl sulfamate]
CC(C)(Cc1ncnc2c1ccn2[C@@H]1C[C@@H](COS(N)(=O)=O)[C@@H](O)C1)c1ccccc1 [Compound I-50, {(1S,2S,4R)-2-hydroxy-4-[4-(2-methyl-2-phenylpropyl)-7H-pyrrolo[2,3-d]-pyrimidin-7-yl]cyclopentyl}methyl sulfamate]
NS(=O)(=O)CC[C@@H]1C[C@@H](n2ccc3c(N[C@H]4CCc5ccccc54)ncnc32)C[C@@H]1O [Compound I-59, 2-((1S,2S,4R)-4-{4-[(1S)-2,3-dihydro-1H-inden-1-ylamino]-7H-pyrrolo[2,3-d]-pyrimidin-7-yl}-2-hydroxycyclopentyl)ethanesulfonamide]
Nc1ncnc2c1ccn2[C@@H]1C[C@@H](COS(N)(=O)=O)[C@@H](O)C1 [Compound I-18, [(1S,2S,4R)-4-(4-amino-7H-pyrrolo[2,3-d]pyrimidin-7-yl)-2-hydroxycyclopentyl]methyl sulfamate]
CC1(C)C[C@H](Nc2ncnc3c2ccn3[C@@H]2C[C@@H](COS(N)(=O)=O)[C@@H](O)C2)c2ccccc21 (single isomer, unassigned) [Compound I-14]
COC[C@@H]1Cc2ccccc2[C@@H]1Nc1ncnc2c1ccn2[C@@H]1C[C@@H](COS(N)(=O)=O)[C@@H](O)C1 [Compound I-79, [(1S,2S,4R)-2-hydroxy-4-(4-{[(1R,2R)-2-(methoxymethyl)-2,3-dihydro-1H-inden-1-yl]amino}-7H-pyrrolo[2,3-d]pyrimidin-7-yl)cyclopentyl]methyl sulfamate]
NS(=O)(=O)OC[C@@H]1C[C@@H](n2ccc3c(N[C@H]4CCc5cccc(F)c54)ncnc32)C[C@@H]1O [Compound I-66, [(1S,2S,4R)-4-(4-{[(1S)-7-fluoro-2,3-dihydro-1H-inden-1-yl]amino}-7H-pyrrolo[2,3-d]pyrimidin-7-yl)-2-hydroxycyclopentyl]methyl sulfamate]
CCO[C@H]1Cc2ccccc2[C@H]1Nc1ncnc2c1ccn2[C@@H]1C[C@@H](COS(N)(=O)=O)[C@@H](O)C1 [Compound I-70, [(1S,2S,4R)-4-(4-{[(1R,2S)-2-ethoxy-2,3-dihydro-1H-inden-1-yl]amino}-7H-pyrrolo[2,3-d]pyrimidin-7-yl)-2-hydroxycyclopentyl]methyl sulfamate]
NS(=O)(=O)OC[C@@H]1C[C@@H](n2ccc3c(NCc4c(F)cccc4F)ncnc32)C[C@@H]1O [Compound I-15, ((1S,2S,4R)-4-{4-[(2,6-dif1uorobenzyl)amino]-7H-pyrrolo[2,3-d]pyrimidin-7-yl}-2-hydroxycyclopentyl)methyl sulfamate]
